Assays:
[1] = test system: hepatic mRNA expression in STAM™ mice; test: Murine STAM model of NASH-HCC: hepatic gene expression by quantitative RT-PCR; assay type: in vivo, mouse; settings: 300 mg/kg, n = 8, STAM mice, normalized to non-treated group
Method: A study was performed to evaluate the efficacy of gemcabene calcium salt hydrate Crystal Form 1 having a PSD90 of 52 μm as measured by laser light diffraction, in treating non-alcoholic steatosis hepatitis (NASH) in the murine STAM™ model of NASH-HCC.
Briefly, two-day old neonatal C57BL/6 male mice were administered low-dose streptozotocin (STZ), and were subsequently fed a HFC diet from 4 weeks of age. In this model, the mice typically develop liver steatosis and diabetes, reaching steatohepatitis within 3 weeks, followed by cirrhosis within 8 weeks, and carcinoma within 16 weeks. In the current study, mice were administered daily oral gemcabene calcium salt hydrate Crystal Form 1 starting at week 6 of age and were sacrificed at week 9. […] These STAM™ groups were orally administered from week 6 one of the following: water-vehicle, gemcabene calcium salt hydrate Crystal Form 1 at 30, 100 and 300 mg/kg daily, or telmisartan ([…]®) 10 mg/kg daily. […] All groups were sacrificed at week 9. Vehicle, gemcabene calcium salt hydrate Crystal Form 1, or telmisartan were administered by oral gavage once daily.
Various gene expression markers of liver metabolism were evaluated by Real-Time PCR (RT-PCR) in all mouse groups. Total RNA was extracted from liver samples using RNAiso (Takara Bio, Japan) according to the manufacturer's instructions. […] of RNA was reverse-transcribed using a reaction mixture containing 4.4 mM MgCl2 (F. Hoffmann-La Roche, Switzerland), 40 U RNase inhibitor (Toyobo, Japan), 0.5 mM dNTP (Promega, USA), 6.28 μM random hexamer (Promega), 5×first strand buffer (Promega), 10 mM dithiothreitol (Invitrogen, USA) and 200 U MMLV-RT (Invitrogen) in a final volume of 20 μL. The reaction was carried out for 1 hour at 37° C., followed by 5 minutes at 99° C. Real-time PCR was performed using real-time PCR DICE and SYBR premix Taq (Takara Bio). To calculate the relative mRNA expression level, the expression of each gene was normalized to that of reference gene 36B4 (gene symbol: RplpO). Information of PCR-primer sets is described in Tables 37A-37C. Statistical analyses were performed using the Bonferroni Multiple Comparison Test on GraphPad Prism 6 (GraphPad Software Inc., USA). P values <0.05 were considered statistically significant. Results are expressed as mean±SD.
In order to calculate the relative mRNA expression level, the expression of each gene was normalized to that of the reference gene 36B4 (gene symbol: RplpO). The gene expression levels were measured by quantitative RT-PCR. Results were normalized with values for the vehicle-treated normal group. […] Gemcabene calcium salt hydrate Crystal Form 1 (PSD90=52 μm) modulated the mRNA expression of many hepatic genes that play a significant role in the liver homeostasis and injury.

[2] = test system: STAM™ mice, a murine model of NASH-HCC; test: Murine STAM model of NASH-HCC: whole blood, plasma and liver biochemistry; settings: mean ± SD, n = 8; for Fasting blood glucose / Plasma insulin: Day 18 after 8 hours of fasting; for Liver free fatty acid / Liver hydroxyproline / Liver triglyceride / Non-fasting blood glucose / Plasma ApoC-III / Plasma CRP / Plasma adiponectin / Plasma alanine aminotransferase / Plasma alkaline phosphatase / Plasma aspartate aminotransferase / Plasma blood urea nitrogen / Plasma creatinine / Plasma gamma-glutamyl transferase / Plasma ketone body / Plasma leptin / Plasma total bilirubin / Plasma total cholesterol / Plasma triglyceride: at termination (Day 21)

Q: Which “MCP-1 gene expression (mean ± SD)” value [1] does the source give for `CC(C)(CCCCOCCCCC(C)(C)C(=O)O)C(=O)O` [gemcabene, 6-(5-carboxy-5-methyl-hexyloxy)-2,2-dimethyl-hexanoic acid] here?
A: The value was 1.6 ± 0.7.

Q: And the “MIP-1β gene expression (mean ± SD)” value [1]?
A: The value was 2.8 ± 1.4.

Q: What about the “MMP-2 gene expression (mean ± SD)” value [1] of the same compound?
A: The value was 0.9 ± 0.2.

Q: What about the “NF-κB gene expression (mean ± SD)” value [1] of the same compound?
A: The value was 0.8 ± 0.1.

Q: And the “PNPLA3 gene expression (mean ± SD)” value [1]?
A: Its value is 0.2 ± 0.2.

Q: And the “SCD1 gene expression (mean ± SD)” value [1]?
A: The value was 0.4 ± 0.2.

Q: What about the “SREBP-1 gene expression (mean ± SD)” value [1] of the same compound?
A: Its value is 0.7 ± 0.1.

Q: And the “Sulf-2 gene expression (mean ± SD)” value [1]?
A: Its value is 3.3 ± 0.9.

Q: And the “TIMP-1 gene expression (mean ± SD)” value [1]?
A: The value was 4.4 ± 2.1.

Q: And the “TNF-α gene expression (mean ± SD)” value [1]?
A: Its value is 1.9 ± 0.7.

Q: And the “α-SMA gene expression (mean ± SD)” value [1]?
A: The value was 2.5 ± 0.7.

Q: What about the Fasting blood glucose ([2]; 30 mg/kg PO QD) of the same compound?
A: The Fasting blood glucose was 437 ± 42 mg/dL.

Q: What about the Plasma insulin ([2]; 30 mg/kg PO QD) of the same compound?
A: The Plasma insulin was 0.13 ± 0.04 ng/mL.

Q: And the “Liver free fatty acid” value ([2]; 30 mg/kg PO QD)?
A: The value was 35.1 ± 8.4 pEq/g liver.

Q: And the Liver hydroxyproline ([2]; 30 mg/kg PO QD)?
A: Its Liver hydroxyproline is 0.66 ± 0.12 μg/mg total protein.

Q: What about the Liver triglyceride ([2]; 30 mg/kg PO QD) of the same compound?
A: The Liver triglyceride was 49.2 ± 8.6 mg/g liver.

Q: And the Non-fasting blood glucose ([2]; 30 mg/kg PO QD)?
A: The Non-fasting blood glucose was 607 ± 48 mg/dL.

Q: What about the “Plasma ApoC-III” value ([2]; 30 mg/kg PO QD) of the same compound?
A: The value was 6.6 ± 0.8 gg/mL.

Q: What about the “Plasma CRP” value ([2]; 30 mg/kg PO QD) of the same compound?
A: The value was 2.5 ± 0.3 gg/mL.

Q: What about the Plasma adiponectin ([2]; 30 mg/kg PO QD) of the same compound?
A: Its Plasma adiponectin is 4.1 ± 0.9 gg/mL.

Q: And the Plasma alanine aminotransferase ([2]; 30 mg/kg PO QD)?
A: Its Plasma alanine aminotransferase is 41 ± 15 U/L.

Q: What about the Plasma alkaline phosphatase ([2]; 30 mg/kg PO QD) of the same compound?
A: Its Plasma alkaline phosphatase is 382 ± 78 U/L.

Q: And the Plasma aspartate aminotransferase ([2]; 30 mg/kg PO QD)?
A: The Plasma aspartate aminotransferase was 100 ± 44 U/L.

Q: And the “Plasma blood urea nitrogen” value ([2]; 30 mg/kg PO QD)?
A: Its value is 25.0 ± 3.9 mg/dL.

Q: And the Plasma creatinine ([2]; 30 mg/kg PO QD)?
A: Its Plasma creatinine is 0.1 ± 0.0 mg/dL.

Q: What about the Plasma gamma-glutamyl transferase ([2]; 30 mg/kg PO QD) of the same compound?
A: Its Plasma gamma-glutamyl transferase is 1 ± 0 U/L.

Q: What about the Plasma ketone body ([2]; 30 mg/kg PO QD) of the same compound?
A: The Plasma ketone body was 9.43 ± 2.35 m M.

Q: What about the Plasma leptin ([2]; 30 mg/kg PO QD) of the same compound?
A: The Plasma leptin was 3.1 ± 1.2 ng/mL.

Q: What about the Plasma total bilirubin ([2]; 30 mg/kg PO QD) of the same compound?
A: Its Plasma total bilirubin is 0.2 ± 0.1 mg/dL.

Q: And the Plasma total cholesterol ([2]; 30 mg/kg PO QD)?
A: The Plasma total cholesterol was 194 ± 17 mg/dL.

Q: What about the Plasma triglyceride ([2]; 30 mg/kg PO QD) of the same compound?
A: The Plasma triglyceride was 319 ± 198 mg/dL.

Q: What about the Fasting blood glucose ([2]; 100 mg/kg PO QD) of the same compound?
A: The Fasting blood glucose was 441 ± 46 mg/dL.

Q: What about the Plasma insulin ([2]; 100 mg/kg PO QD) of the same compound?
A: Its Plasma insulin is 0.17 ± 0.06 ng/mL.

Q: What about the “Liver free fatty acid” value ([2]; 100 mg/kg PO QD) of the same compound?
A: The value was 38.4 ± 8.5 pEq/g liver.

Q: What about the Liver hydroxyproline ([2]; 100 mg/kg PO QD) of the same compound?
A: The Liver hydroxyproline was 0.74 ± 0.38 μg/mg total protein.

Q: And the Liver triglyceride ([2]; 100 mg/kg PO QD)?
A: Its Liver triglyceride is 58.4 ± 14.5 mg/g liver.

Q: And the Non-fasting blood glucose ([2]; 100 mg/kg PO QD)?
A: The Non-fasting blood glucose was 653 ± 53 mg/dL.

Q: What about the “Plasma ApoC-III” value ([2]; 100 mg/kg PO QD) of the same compound?
A: The value was 6.0 ± 2.5 gg/mL.

Q: And the “Plasma CRP” value ([2]; 100 mg/kg PO QD)?
A: Its value is 1.9 ± 0.3 gg/mL.

Q: And the Plasma adiponectin ([2]; 100 mg/kg PO QD)?
A: Its Plasma adiponectin is 4.1 ± 0.5 gg/mL.

Q: And the Plasma alanine aminotransferase ([2]; 100 mg/kg PO QD)?
A: The Plasma alanine aminotransferase was 27 ± 7 U/L.

Q: And the Plasma alkaline phosphatase ([2]; 100 mg/kg PO QD)?
A: Its Plasma alkaline phosphatase is 642 ± 167 U/L.

Q: What about the Plasma aspartate aminotransferase ([2]; 100 mg/kg PO QD) of the same compound?
A: The Plasma aspartate aminotransferase was 88 ± 32 U/L.

Q: What about the “Plasma blood urea nitrogen” value ([2]; 100 mg/kg PO QD) of the same compound?
A: Its value is 29.8 ± 4.3 mg/dL.

Q: What about the Plasma creatinine ([2]; 100 mg/kg PO QD) of the same compound?
A: The Plasma creatinine was 0.1 ± 0.1 mg/dL.

Q: And the Plasma gamma-glutamyl transferase ([2]; 100 mg/kg PO QD)?
A: Its Plasma gamma-glutamyl transferase is 1 ± 0 U/L.

Q: And the Plasma ketone body ([2]; 100 mg/kg PO QD)?
A: Its Plasma ketone body is 5.75 ± 3.24 m M.

Q: What about the Plasma leptin ([2]; 100 mg/kg PO QD) of the same compound?
A: Its Plasma leptin is 4.3 ± 1.2 ng/mL.

Q: And the Plasma total bilirubin ([2]; 100 mg/kg PO QD)?
A: Its Plasma total bilirubin is 0.3 ± 0.2 mg/dL.

Q: What about the Plasma total cholesterol ([2]; 100 mg/kg PO QD) of the same compound?
A: The Plasma total cholesterol was 228 ± 37 mg/dL.

Q: What about the Plasma triglyceride ([2]; 100 mg/kg PO QD) of the same compound?
A: Its Plasma triglyceride is 191 ± 57 mg/dL.

Q: What about the Fasting blood glucose ([2]; 300 mg/kg PO QD) of the same compound?
A: The Fasting blood glucose was 407 ± 15 mg/dL.

Q: What about the Plasma insulin ([2]; 300 mg/kg PO QD) of the same compound?
A: The Plasma insulin was 0.13 ± 0.04 ng/mL.

Q: What about the “Liver free fatty acid” value ([2]; 300 mg/kg PO QD) of the same compound?
A: The value was 46.0 ± 5.5 pEq/g liver.

Q: What about the Liver hydroxyproline ([2]; 300 mg/kg PO QD) of the same compound?
A: Its Liver hydroxyproline is 0.70 ± 0.10 μg/mg total protein.

Q: What about the Liver triglyceride ([2]; 300 mg/kg PO QD) of the same compound?
A: Its Liver triglyceride is 56.0 ± 13.9 mg/g liver.

Q: And the Non-fasting blood glucose ([2]; 300 mg/kg PO QD)?
A: Its Non-fasting blood glucose is 638 ± 63 mg/dL.

Q: And the “Plasma ApoC-III” value ([2]; 300 mg/kg PO QD)?
A: The value was 6.2 ± 0.7 gg/mL.

Q: What about the “Plasma CRP” value ([2]; 300 mg/kg PO QD) of the same compound?
A: The value was 1.9 ± 0.4 gg/mL.

Q: What about the Plasma adiponectin ([2]; 300 mg/kg PO QD) of the same compound?
A: The Plasma adiponectin was 4.9 ± 0.5 gg/mL.

Q: What about the Plasma alanine aminotransferase ([2]; 300 mg/kg PO QD) of the same compound?
A: The Plasma alanine aminotransferase was 32 ± 14 U/L.

Q: And the Plasma alkaline phosphatase ([2]; 300 mg/kg PO QD)?
A: The Plasma alkaline phosphatase was 794 ± 57 U/L.

Q: What about the Plasma aspartate aminotransferase ([2]; 300 mg/kg PO QD) of the same compound?
A: The Plasma aspartate aminotransferase was 147 ± 122 U/L.

Q: And the “Plasma blood urea nitrogen” value ([2]; 300 mg/kg PO QD)?
A: Its value is 30.1 ± 5.8 mg/dL.

Q: And the Plasma creatinine ([2]; 300 mg/kg PO QD)?
A: Its Plasma creatinine is 0.2 ± 0.1 mg/dL.

Q: What about the Plasma gamma-glutamyl transferase ([2]; 300 mg/kg PO QD) of the same compound?
A: Its Plasma gamma-glutamyl transferase is 1 ± 0 U/L.

Q: And the Plasma ketone body ([2]; 300 mg/kg PO QD)?
A: Its Plasma ketone body is 5.68 ± 3.08 m M.

Q: And the Plasma leptin ([2]; 300 mg/kg PO QD)?
A: Its Plasma leptin is 3.2 ± 1.1 ng/mL.

Q: What about the Plasma total bilirubin ([2]; 300 mg/kg PO QD) of the same compound?
A: The Plasma total bilirubin was 0.3 ± 0.1 mg/dL.

Q: And the Plasma total cholesterol ([2]; 300 mg/kg PO QD)?
A: Its Plasma total cholesterol is 234 ± 45 mg/dL.

Q: And the Plasma triglyceride ([2]; 300 mg/kg PO QD)?
A: The Plasma triglyceride was 149 ± 32 mg/dL.
